This passage reports melting point and CC50 results from patent US20240174629A1 (OTCPHARM JSC, priority 2021, published 2024).

Broadly, the melting point is the temperature, or range, at which the solid turns liquid. A word on the CC50: it is the concentration that lowers cell viability or growth by half. High values mean better tolerance by the cells, low ones harm at low concentration.

Values after ≈ are worked out from the molar mass of the structure shown.

Series [1] can be described thus: Cytotoxicity, microtetrazolium test (MTT). The following applies: dog, MDCK cells, CC50 (MDCK), mean ±SD.

`COC(=O)c1c(N(C(C)=O)C(C)c2ccccc2)sc2c(Cl)c(O)ccc12` (centres unmarked) [Example 37, Methyl 2-[acetyl(1-phenylethyl)amino]-7-chloro-6-hydroxy-1-benzothiophene-3-carboxylate] came in with a melting point of 195 to 200 °C. The same compound had a CC50 at 48 h in series [1] of 24.5 ± 2.2 µg/mL (≈ 60.7 µM).
For the compound `COC(=O)c1c(N(Cc2ccc(F)cc2F)C(C)=O)sc2cc(O)ccc12` [Example 30, Methyl 2-[acetyl(2,4-difluorobenzyl)amino]-6-hydroxy-1-benzothiophene-3-carboxylate], the melting point is 178 to 180 °C. Besides, the half-maximal cytotoxic concentration (CC50) at 48 h in series [1] was > 300 µg/mL.
Turning to `CC(=O)N(Cc1ccccc1)c1sc2cc(O)ccc2c1C(N)=O` [Example 81, 2-[acetyl(benzyl)amino]-6-hydroxy-1-benzothiophene-3-carboxamide], the melting point is 110 to 115 °C. The compound also came in with a cytotoxic concentration (CC50) at 48 h in series [1] of 251 ± 19 µg/mL (≈ 737 µM).
`CCOC(=O)c1c(N(Cc2ccc(C)cc2)C(C)=O)sc2c(Cl)c(O)ccc12` showed a melting point of 170 to 172 °C.
Still for that read-out and setting: the result for `COC(=O)c1c(N(CCc2ccccc2)C(C)=O)sc2c(Cl)c(O)ccc12` reads 150 to 155 °C; that for `COC(=O)c1c(N(Cc2ccc3ccccc3c2)C(C)=O)sc2cc(O)ccc12`, 200 to 202 °C.
Turning to `COC(=O)c1c(N(Cc2ccc(F)cc2)C(C)=O)sc2c(Cl)c(O)ccc12` [Example 27, Methyl 2-[acetyl(4-fluorobenzyl)amino]-7-chloro-6-hydroxy-1-benzothiophene-3-carboxylate], the melting point lay in the range of 233 to 235 °C. Also, the CC50 at 48 h in series [1] worked out at 39.8 ± 2.5 µg/mL (≈ 97.6 µM).
`CNC(=O)c1c(N(Cc2ccccc2Cl)C(C)=O)sc2c(Cl)c(O)ccc12` [Example 74, 2-[acetyl(2-chlorobenzyl)amino]-7-chloro-6-hydroxy-N-methyl-1-benzothiophene-3-carboxamide] yielded a melting point of 200 to 202 °C. In addition, in series [1], the half-maximal cytotoxic concentration (CC50) at 48 h was 32 ± 4 µg/mL (≈ 75.6 µM).
On the same counts, the results for `COC(=O)c1c(N(Cc2ccc(C(F)(F)F)cc2)C(C)=O)sc2cc(O)ccc12` [Example 22, Methyl 2-[acetyl(4-trifluoromethylbenzyl)amino]-6-hydroxy-1-benzothiophene-3-carboxylate] are 171 to 175 °C and 3.2 ± 0.8 µg/mL (≈ 7.56 µM).
Consider `COC(=O)c1c(N(Cc2ccccc2C)C(C)=O)sc2c(Cl)c(O)ccc12`, for which the melting point lay in the range of 182 to 184 °C.
Take `CCNC(=O)c1c(N(Cc2ccccc2)C(C)=O)sc2cc(O)ccc12` [Example 79, 2-[acetyl(benzyl)amino]-6-hydroxy-N-ethyl-1-benzothiophene-3-carboxamide]: the melting point was in the range of 138 to 142 °C. The same compound displayed a CC50 at 48 h in series [1] of 250 ± 21 µg/mL (≈ 679 µM).
In turn, `CNC(=O)c1c(N(Cc2ccccc2)C(C)=O)sc2c(CN(C)C)c(O)ccc12` yielded a melting point of 145 to 147 °C.
Consider `COC(=O)c1c(N(Cc2ccccc2C)C(C)=O)sc2c(CN(C)C)c(O)ccc12` [Example 58], for which the melting point fell in the range of 155 to 160 °C. Also, in series [1], the CC50 at 48 h was > 300 µg/mL.
Consider `COC(=O)c1c(N(Cc2ccc(F)cc2F)C(C)=O)sc2c(Cl)c(O)ccc12` [Example 29, Methyl 2-[acetyl(2,4-difluorobenzyl)amino]-7-chloro-6-hydroxy-1-benzothiophene-3-carboxylate], for which the melting point was 205 to 210 °C. Moreover, the cytotoxic concentration (CC50) at 48 h in series [1] was > 300 µg/mL.
The compound `COC(=O)c1c(N(Cc2ccccc2Cl)C(C)=O)sc2c(Cl)c(O)ccc12` came in with a melting point of 229 to 233 °C.
`CC(=O)N(Cc1ccc(F)cc1)c1sc2c(Cl)c(O)ccc2c1C(=O)O` gave a melting point of 220 to 224 °C.
For the compound `CNC(=O)c1c(N(Cc2ccccc2F)C(C)=O)sc2c(Cl)c(O)ccc12` [Example 75, 2-[acetyl(2-fluorobenzyl)amino]-7-chloro-6-hydroxy-N-methyl-1-benzothiophene-3-carboxamide], the melting point fell in the range of 108 to 112 °C. The compound also returned a cytotoxic concentration (CC50) at 48 h in series [1] of 28 ± 4 µg/mL (≈ 68.8 µM).
`COC(=O)c1c(N(Cc2ccccc2C(F)(F)F)C(C)=O)sc2cc(O)ccc12` had a melting point of 165 to 169 °C.
For the compound `CC(=O)N(Cc1ccccc1)c1sc2cc(O)ccc2c1C(=O)O` [Example 67, 2-[acetyl(benzyl)amino]-6-hydroxy-1-benzothiophene-3-carboxylic acid], the melting point was 130 to 135 °C. The 50% cytotoxic concentration (CC50) at 48 h in series [1] was > 300 µg/mL.
On the same counts, the results for `COC(=O)c1c(N(Cc2ccc(C(F)(F)F)cc2)C(C)=O)sc2c(Cl)c(O)ccc12` [Example 21, Methyl 2-[acetyl(4-trifluoromethylbenzyl)amino]-7-chloro-6-hydroxy-1-benzothiophene-3-carboxylate] are 176 to 180 °C and 5.6 ± 0.2 µg/mL (≈ 12.2 µM).
Consider `COC(=O)c1c(N(Cc2ccccc2C)C(C)=O)sc2cc(O)ccc12`, for which the melting point lay in the range of 164 to 168 °C.
With `CC(=O)N(Cc1ccccc1)c1sc2cc(O)ccc2c1C#N` [Example 47, N-benzyl-N-(3-cyano-6-hydroxy-1-benzothiophene-2-yl)acetamide], the CC50 at 48 h in series [1] worked out at 16.8 ± 1.5 µg/mL (≈ 52.1 µM).
`COC(=O)c1c(N(C(C)=O)C(C)c2ccccc2)sc2cc(O)ccc12` (centres unmarked) [Example 38, Methyl 2-[acetyl(1-phenylethyl)amino]-6-hydroxy-1-benzothiophene-3-carboxylate] had a melting point of 152 to 157 °C. Moreover, the CC50 at 48 h in series [1] was 30 µg/mL (≈ 81.2 µM).
In turn, `COC(=O)c1c(N(Cc2ccccc2F)C(C)=O)sc2cc(O)ccc12` [Example 24, Methyl 2-[acetyl(2-fluorobenzyl)amino]-6-hydroxy-1-benzothiophene-3-carboxylate] showed a melting point of 165 to 167 °C. The CC50 at 48 h in series [1] was > 300 µg/mL.
In turn, `COC(=O)c1c(N(Cc2ccccc2C(F)(F)F)C(C)=O)sc2c(CN(C)C)c(O)ccc12` [Example 59] came in with a melting point of 184 to 188 °C. The CC50 at 48 h in series [1] was > 300 µg/mL.
Take `CCOC(=O)c1c(N(Cc2ccc(C)cc2)C(C)=O)sc2cc(O)ccc12`: the melting point fell in the range of 145 to 147 °C.
On to `COC(=O)c1c(N(Cc2cccc3ccccc23)C(C)=O)sc2c(Cl)c(O)ccc12`, for which the melting point lay in the range of 210 to 212 °C.
The compound `CCOC(=O)c1c(N(Cc2ccc(Cl)cc2)C(C)=O)sc2c(Cl)c(O)ccc12` yielded a melting point of 174 to 176 °C.
The compound `COC(=O)c1c(N(Cc2cccc3ccccc23)C(C)=O)sc2cc(O)ccc12` [Example 32, Methyl 2-[acetyl(1-naphthylmethyl)amino]-6-hydroxy-1-benzothiophene-3-carboxylate] gave a melting point of 198 to 202 °C. Further, in series [1], the CC50 at 48 h was > 300 µg/mL.
For the compound `COC(=O)c1c(N(Cc2ccc(F)cc2)C(C)=O)sc2cc(O)ccc12` [Example 28, Methyl 2-[acetyl(4-fluorobenzyl)amino]-6-hydroxy-1-benzothiophene-3-carboxylate], the melting point was in the range of 198 to 202 °C. For the same compound, half-maximal cytotoxicity in series [1] (CC50 at 48 h) was put at 240 ± 19 µg/mL (≈ 643 µM).
`CCOC(=O)c1c(N(Cc2ccccc2Cl)C(C)=O)sc2c(Cl)c(O)ccc12` [Example 9, Ethyl 2-[acetyl(2-chlorobenzyl)amino]-7-chloro-6-hydroxy-1-benzothiophene-3-carboxylate] showed a melting point of 174 to 178 °C. In series [1], this compound returned a CC50 at 48 h of 8.3 ± 0.3 µg/mL (≈ 18.9 µM).
For `COC(=O)c1c(N(CCc2ccccc2F)C(C)=O)sc2c(Cl)c(O)ccc12`, the melting point fell in the range of 172 to 174 °C.
`COC(=O)c1c(N(Cc2ccccc2Cl)C(C)=O)sc2c(CN(C)C)c(O)ccc12` [Example 51] registered a melting point of 132 to 136 °C. The CC50 at 48 h in series [1] is > 300 µg/mL.
In the case of `COC(=O)c1c(N(CCc2ccccc2F)C(C)=O)sc2cc(O)ccc12`, the melting point lay in the range of 183 to 185 °C.
`COC(=O)c1c(N(Cc2ccc(C)cc2)C(C)=O)sc2c(Cl)c(O)ccc12` displayed a melting point of 195 to 197 °C.
As for `CNC(=O)c1c(N(Cc2ccc(F)cc2F)C(C)=O)sc2c(Cl)c(O)ccc12` [Example 78, 2-[acetyl(2,4-difluorobenzyl)amino]-7-chloro-6-hydroxy-N-methyl-1-benzothiophene-3-carboxamide], the melting point is 125 to 130 °C. The compound further yielded a cytotoxic concentration (CC50) at 48 h in series [1] of 68 ± 5 µg/mL (≈ 160 µM).
In the case of `COC(=O)c1c(N(Cc2ccccc2C#N)C(C)=O)sc2cc(O)ccc12`, the melting point lay in the range of 168 to 172 °C.
`COC(=O)c1c(N(Cc2ccc(C(C)C)cc2)C(C)=O)sc2cc(O)ccc12` [Example 42, Methyl 2-[acetyl(4-isopropylbenzyl)amino]-6-hydroxy-1-benzothiophene-3-carboxylate]: the melting point lay in the range of 141 to 145 °C. Moreover, half-maximal cytotoxicity in series [1] (CC50 at 48 h) was put at 10 µg/mL (≈ 25.2 µM).
As to `COC(=O)c1c(N(Cc2ccc(C)cc2)C(C)=O)sc2cc(O)ccc12`, the melting point is 160 to 164 °C.
Compound `COC(=O)c1c(N(Cc2cccc(F)c2)C(C)=O)sc2cc(O)ccc12` came in with a melting point of 145 to 150 °C.
The same measure, in the same setting: to `CC(=O)N(Cc1ccccc1)c1sc2c(Cl)c(O)ccc2c1C#N` belongs 176 to 178 °C.
For `COC(=O)c1c(N(Cc2ccccc2)C(C)=O)sc2c(Cl)c(O)ccc12` [Example 3, Methyl 2-[acetyl(benzyl)amino]-7-chloro-6-hydroxy-1-benzothiophene-3-carboxylate], in series [1], the half-maximal cytotoxic concentration (CC50) at 48 h turned out to be 4.5 ± 0.3 µg/mL (≈ 11.5 µM).
For the compound `CC(=O)N(Cc1ccccc1)c1sc2cc(O)ccc2c1C(=O)OC(C)(C)C`, the melting point fell in the range of 185 to 190 °C.
With `CC(=O)N(Cc1ccccc1F)c1sc2cc(O)ccc2c1C(=O)O`, the melting point fell in the range of 140 to 145 °C.
`COC(=O)c1c(N(Cc2ccccc2C(F)(F)F)C(C)=O)sc2c(Cl)c(O)ccc12`: the melting point was 182 to 186 °C.
Turning to `CCOC(=O)c1c(N(Cc2ccc(Cl)cc2)C(C)=O)sc2cc(O)ccc12`, the melting point lay in the range of 172 to 176 °C.
For the compound `COC(=O)c1c(N(Cc2ccc(F)cc2)C(C)=O)sc2c(CN(C)C)c(O)ccc12`, the melting point was 145 to 149 °C.
Compound `COC(=O)c1c(N(Cc2ccccc2C#N)C(C)=O)sc2c(Cl)c(O)ccc12` showed a melting point of 204 to 208 °C.
In the case of `CC(=O)N(Cc1ccccc1F)c1sc2c(Cl)c(O)ccc2c1C(=O)O`, the melting point lay in the range of 230 to 234 °C.
Take `CCOC(=O)c1c(N(Cc2ccccc2Cl)C(C)=O)sc2cc(O)ccc12`: the melting point lay in the range of 176 to 180 °C.
